Experimental findings from PubChem BioAssay AID651875 (NMMLSC, 2012) are described below.

This assay relates to AM2.2 cells FAP-GPR32, fluorogen binding, flow cytometry MCF. The assay is described as follows: fluorogen binding to FAP-tagged GPR32, dose response, counter-screen for beta2AR agonist internalization project, AM2.2 cells, flow cytometry, powder set 4 (AID 651875).

With `CC(=O)Nc1ccc(S(=O)(=O)N2CCCCC2c2cccnc2)cc1` (stereo not given), the EC50 is 15.6 nM. For the molecule `COc1ccccc1N1CCN(C(=O)CN(C)S(=O)(=O)c2ccc(C)cc2)CC1`, the concentration giving a half-maximal response (EC50) is 974 nM. Regarding `Cc1ccc(S(=O)(=O)N(C)CC(=O)N2CCN(c3ccccn3)CC2)cc1`, the concentration for a half-maximal effect (EC50) is 3.7 nM. As for `O=C(CN(Cc1ccccc1)S(=O)(=O)c1ccc(Cl)cc1)N1CCN(c2ccccn2)CC1`, the figure is 316 nM; as for `O=C(C1CCC(=O)N1S(=O)(=O)c1ccccc1)N1CCN(c2ccccn2)CC1` (stereo not given), 49.6 nM.
